Test results reported in patent publication US8063225B2, “Tricyclic compound derivatives useful in the treatment of neoplastic diseases, inflammatory disorders and immunomodulatory disorders” (Chembridge Corporation, priority 2006, dated 2011).

Assays:
[1] = biological target: T1, IGF1R tyrosine kinase (Homo sapiens, UniProt P08069); test: IGF1R tyrosine kinase assay (Kinase-Glo ATP depletion or PT66/PT100 AlphaScreen); conditions: biochemical tyrosine kinase assay
T1 construct: 6×His- or GST-tagged kinase domain fragments of the corresponding RTKs expressed in baculovirus system; host or cells: baculovirus system
T1 sequence (P08069 999-1274 limits assumed): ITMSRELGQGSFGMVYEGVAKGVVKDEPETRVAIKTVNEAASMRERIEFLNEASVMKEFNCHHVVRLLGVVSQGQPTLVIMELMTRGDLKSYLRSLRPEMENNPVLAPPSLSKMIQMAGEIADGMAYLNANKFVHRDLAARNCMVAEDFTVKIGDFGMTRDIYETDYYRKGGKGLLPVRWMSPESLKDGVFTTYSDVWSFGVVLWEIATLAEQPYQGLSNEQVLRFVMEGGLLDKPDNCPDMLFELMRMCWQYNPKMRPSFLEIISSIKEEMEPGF
Procedure: (§1) To determine inhibition of several tyrosine kinases, such as IGF1R, InsR, Alk, TrkA and Jak2, kinase assays are conducted using either Kinase-Glo (Promega) or AlphaScreen (PerkinElmer) kinase assay platforms. The Kinase-Glo Luminescent Kinase Assay is a homogeneous method for measuring kinase activity by determining the amount of ATP remaining after a kinase reaction. The luminescent signal is proportional to the amount of ATP and inversely proportional to the amount of kinase activity. Tyrosine kinase PT66 AlphaScreen Assay is a high-sensitivity homogeneous, anti-phosphotyrosine antibody-mediated luminescent proximity method measuring, incorporation of phosphate in synthetic poly(Glu-Tyr) substrate. The kinase preparations used consist of purified recombinant, 6×His- or GST-tagged kinase domain fragments of the corresponding RTKs expressed in baculovirus system.
(§2) The IGF1R tyrosine kinase is assayed in Kinase-Glo ATP depletion assay using the synthetic polymer poly(Glu-Tyr, 4:1) (Sigma Chemicals) as a phosphoacceptor substrate. Each reaction mixture consists of a total volume of 10 μl and contains 40 ng of the enzyme, 5 μg of poly(Glu-Tyr), 10 μM of ATP and variable concentrations of test compounds. The mixtures also contain 50 mM Tris-HCl, pH 7.5; 5 mM MgCl2; 5 mM MnCl2; 2 mM DTT and 0.01% Tween 20. The reaction mixtures are incubated at 37° C. for 60 minutes and residual concentration of ATP in the mixture is determined by adding luciferase-containing Kinase-Glo (Promega) development reagent and counting luminescence levels using Fusion Universal Microplate Analyzer (PerkinElmer). Tested compounds are dissolved in dimethyl sulfoxide to a stock concentration of 10 mM and are typically evaluated in the assay at eight concentrations in 1 nM to 20 μM range, each in quadruplicate. […] IC50 values are derived by non-linear regression analysis using Prism 3.0 software (Graphpad Software). Other tyrosine kinases are assayed according to the same protocol after titrating amount of the enzyme to provide optimal signal-to-noise ratio and no more than 30% of total ATP consumption in the reaction conditions used.
(§3) The IGF1R tyrosine kinase is assayed in Phosphotyrosine (PT66 or PT 100) AlphaScreen chemiluminescent assay (PerkinElmer) according to the manufacturerer's recommendations. Each kinase reaction mixture consists of a total volume of 15 μl and contains 0.1-1 ng of the enzyme, 7 ng of biotinylated poly(Glu-Tyr) (Cis-Bio), 10 μM of ATP and variable concentrations of test compounds. The mixtures also contain 50 mM Tris-HCl, pH 7.5; 5 mM MgCl2; 5 mM MnCl2; 2 mM DTT and 0.01% Tween 20. The reaction mixtures are incubated at room temperature for 30 minutes. Ten (10) μl of the mixture of […] and donor beads (as supplied by the manufacturer) is then added to the reaction and the incubation is continued for an additional 60 minutes.

[2] = biological target: T2, InsR (Homo sapiens, UniProt P06213); test: Tyrosine kinase assay (Kinase-Glo or AlphaScreen), InsR; conditions: biochemical tyrosine kinase assay
T2 construct: 6×His- or GST-tagged kinase domain fragments of the corresponding RTKs expressed in baculovirus system; host or cells: baculovirus system
T2 sequence (P06213 1023-1298 limits assumed, species assumed): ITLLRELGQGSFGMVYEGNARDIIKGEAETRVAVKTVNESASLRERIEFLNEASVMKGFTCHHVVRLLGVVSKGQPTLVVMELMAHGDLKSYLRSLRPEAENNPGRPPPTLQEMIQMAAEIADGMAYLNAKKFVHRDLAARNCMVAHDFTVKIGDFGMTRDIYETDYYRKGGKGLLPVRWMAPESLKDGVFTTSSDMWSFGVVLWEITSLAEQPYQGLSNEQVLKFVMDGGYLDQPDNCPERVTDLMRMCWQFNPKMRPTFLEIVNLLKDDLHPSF
Procedure: as §1, §2, §3

[3] = biological target: T3, Alk (Homo sapiens, UniProt Q9UM73); test: Tyrosine kinase assay (Kinase-Glo or AlphaScreen), Alk; conditions: biochemical tyrosine kinase assay
T3 construct: 6×His- or GST-tagged kinase domain fragments of the corresponding RTKs expressed in baculovirus system; host or cells: baculovirus system
T3 sequence (Q9UM73 1116-1392 limits assumed, species assumed): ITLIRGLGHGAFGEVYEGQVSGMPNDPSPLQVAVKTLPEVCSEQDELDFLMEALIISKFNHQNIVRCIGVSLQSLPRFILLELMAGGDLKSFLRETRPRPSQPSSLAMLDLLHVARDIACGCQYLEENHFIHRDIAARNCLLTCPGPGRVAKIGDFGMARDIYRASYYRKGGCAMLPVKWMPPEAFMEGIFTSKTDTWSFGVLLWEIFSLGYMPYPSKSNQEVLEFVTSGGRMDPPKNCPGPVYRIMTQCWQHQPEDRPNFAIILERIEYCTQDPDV
Procedure: as §1, §2, §3

[4] = biological target: T4, Jak2 (Homo sapiens, UniProt O60674); test: Tyrosine kinase assay (Kinase-Glo or AlphaScreen), Jak2; conditions: biochemical tyrosine kinase assay
T4 construct: 6×His- or GST-tagged kinase domain fragments of the corresponding RTKs expressed in baculovirus system; host or cells: baculovirus system
T4 sequence (O60674 849-1124 limits assumed, species assumed): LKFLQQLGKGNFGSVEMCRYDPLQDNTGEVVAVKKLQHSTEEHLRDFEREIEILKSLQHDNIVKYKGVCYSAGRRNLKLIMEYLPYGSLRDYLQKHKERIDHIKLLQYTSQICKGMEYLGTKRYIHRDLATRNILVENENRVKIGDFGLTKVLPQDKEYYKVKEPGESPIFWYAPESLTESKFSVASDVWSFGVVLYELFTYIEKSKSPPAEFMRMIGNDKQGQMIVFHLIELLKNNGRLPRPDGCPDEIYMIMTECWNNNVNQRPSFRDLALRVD
Procedure: as §1, §2, §3

[5] = test system: Ba/F3; test: Cell proliferation inhibition, Cell Titer-Glo, Ba/F3; format: cell-based; conditions: Mus musculus, BaF3; cell proliferation assay, Ba/F3 cells
Description: (§4) IGF1R and other tyrosine kinase inhibitors can inhibit the proliferation of certain cancer cell lines indicating their possible therapeutic utility for treating the corresponding cancer types. Cancer cell lines of interest and control normal lines, including CHO, HEK293, BA/F3, COLO205, PC3, DU145, MCF7, Panc1, ACHN, Hep G2, H460, K562, TT, U87-MG, CAOV-3, SK-MEL5, Karpas 299 and human multiple myeloma cell lines H929, MM1s, MM1r, UTMC2, CPM2, KMS11, My5, KMS12PE, My7, JJN3, KMS18, U266, SKMM2, RPMI-8226 are plated in white, clear-bottomed 384-well cell culture plates at 2500-5000 cells per well and supplied with dilutions of tested compounds After a desired period of time (typically 3 days), the number of viable cells is quantitated by using Cell Titer-Glo Luminescent Cell Viability Assay (Promega), a cell proliferation assay system based on detection of total amount of ATP present as a measure of cell metabolic activity. The plated cells are mixed with the Cell Titer-Glo developing reagent and counted in a luminescence multiwell plate reader according to the standard manufacturer's protocol to generate IC50 curves for cell proliferation inhibition. Results are typically reported as percent of growth (% viability =(OD72h(compound)−ODday0))/(OD72h(no compound)−ODday0). Alternatively, viable cells are quantitated by using the conventional colorimetric MTT assay. The MTT assay is based on the cleavage of the yellow tetrazolium salt MTT to purple formazan crystal by metabolic active cells. The formazan is then solubilized, and the concentration determined by optical density at 570 nm. The cells plated and incubated with a compound as described above are supplemented with the solution of MTT and incubated for 2-3 hours. The growth medium is removed and dimethyl sulfoxide is added into each well to dissolve the formazan. The absorbance is measured on an ELISA plate reader with a test wavelength of 570 nm and a background subtraction wavelength of 630 nm to obtain sample signal (OD570-OD630). […] The results are reported in terms of IC50 value for a particular compound and a cell line in the standard 3-day proliferation assay using Cell Titer-Glo. […] The results are reported in terms of IC50 value for a particular compound and a cell line in the standard 3-day proliferation assay using MTT assay.

[6] = test system: Karpas-299; test: Cell proliferation inhibition, Cell Titer-Glo, Karpas-299; format: cell-based; conditions: Homo sapiens; cell proliferation assay, Karpas-299 cells
Description: as §4

[7] = test system: K562; test: Cell proliferation inhibition, Cell Titer-Glo, K562; format: cell-based; conditions: Homo sapiens; cell proliferation assay, K562 cells
Description: as §4

Compound	IC50 [1]	IC50 [2]	IC50 [3]	IC50 [4]	IC50 [5]	IC50 [6]	IC50 [7]
COc1cc(C)ccc1OC[C@H](O)CNc1ccnc(O)c1-c1nc2cc3c(cc2[nH]1)C(=O)N(C1CCN(C)CC1)C3=O [compound 54]	< 0.5 µM	0.5 to 5 µM	5 to 15 µM	> 15 µM	5 to 15 µM	5 to 15 µM	5 to 15 µM
O=C1c2cc3nc(-c4c(NC[C@@H](O)c5cccc(Cl)c5)cc[nH]c4=O)[nH]c3cc2C(=O)N1CCCO [compound 44]	0.5 to 5 µM	0.5 to 5 µM	> 15 µM	0.5 to 5 µM	> 15 µM	5 to 15 µM	5 to 15 µM
CN1CCC(N2C(=O)c3cc4nc(-c5c(NC[C@@H](O)COc6cccc(C#N)c6)ccnc5O)[nH]c4cc3C2=O)CC1 [compound 52]	< 0.5 µM	0.5 to 5 µM	0.5 to 5 µM	0.5 to 5 µM	> 15 µM	> 15 µM	> 15 µM
Cc1ccc(SC[C@H](O)CNc2cc[nH]c(=O)c2-c2nc3cc4c(cc3[nH]2)C(=O)N(C2CCN(C)CC2)C4=O)c(C)c1 [compound 79]	0.5 to 5 µM	0.5 to 5 µM	0.5 to 5 µM	0.5 to 5 µM	5 to 15 µM	5 to 15 µM	0.5 to 5 µM
Cc1c(Cl)cccc1OC[C@H](O)CNc1cc[nH]c(=O)c1-c1nc2cc3c(cc2[nH]1)C(=O)N(CC1CCN(CCO)CC1)C3=O [compound 119]	< 0.5 µM	< 0.5 µM	0.5 to 5 µM	0.5 to 5 µM	> 15 µM	> 15 µM	> 15 µM
Cc1ccc(OCC(O)CNc2cc[nH]c(=O)c2-c2nc3cc4c(cc3[nH]2)C(=O)N(C2CCN(C)CC2)C4=O)cc1C (stereo not shown) [compound 104]	0.5 to 5 µM	< 0.5 µM	5 to 15 µM	5 to 15 µM	> 15 µM	> 15 µM	> 15 µM
CN1CCC(N2C(=O)c3cc4nc(-c5c(NCC(O)COc6ccc(Cl)cc6)cc[nH]c5=O)[nH]c4cc3C2=O)CC1 (stereo not shown) [compound 39]	0.5 to 5 µM	0.5 to 5 µM	0.5 to 5 µM	0.5 to 5 µM	0.5 to 5 µM	0.5 to 5 µM	0.5 to 5 µM
CN1CCC(N2C(=O)c3cc4nc(-c5c(NC[C@@H](O)COc6cccc7c6OC(F)(F)C(F)O7)cc[nH]c5=O)[nH]c4cc3C2=O)CC1 (stereo partly shown) [compound 83]	< 0.5 µM	< 0.5 µM	0.5 to 5 µM	0.5 to 5 µM	> 15 µM	> 15 µM	> 15 µM
CN1CCC(N2C(=O)c3cc4nc(-c5c(N[C@@H](CO)Cc6ccccc6)cc[nH]c5=O)[nH]c4cc3C2=O)CC1 [compound 5]	0.5 to 5 µM	0.5 to 5 µM	< 0.5 µM	0.5 to 5 µM	0.5 to 5 µM	0.5 to 5 µM	0.5 to 5 µM
CN1CCC(N2C(=O)c3cc4nc(-c5c(NC[C@@H](O)COc6cccc7c6OC(F)C(F)(F)O7)cc[nH]c5=O)[nH]c4cc3C2=O)CC1 (stereo partly shown) [compound 82]	< 0.5 µM	0.5 to 5 µM	0.5 to 5 µM	0.5 to 5 µM	> 15 µM	> 15 µM	> 15 µM
Cc1ncccc1OC[C@H](O)CNc1ccnc(O)c1-c1nc2cc3c(cc2[nH]1)C(=O)N(C1CCN(C)CC1)C3=O [compound 71]	0.5 to 5 µM	0.5 to 5 µM	5 to 15 µM	5 to 15 µM	> 15 µM	> 15 µM	> 15 µM
CN1CCC(N2C(=O)c3cc4nc(-c5c(NN)ccnc5O)[nH]c4cc3C2=O)CC1 [compound 65]	5 to 15 µM	5 to 15 µM	> 15 µM	5 to 15 µM	> 15 µM	> 15 µM	> 15 µM
CN1CCC(N2C(=O)c3cc4nc(-c5c(NC[C@@H](O)Cn6cnc7ccccc76)ccnc5O)[nH]c4cc3C2=O)CC1 [compound 49]	0.5 to 5 µM	0.5 to 5 µM	0.5 to 5 µM	0.5 to 5 µM	> 15 µM	> 15 µM	> 15 µM
CN1CCC(N2C(=O)c3cc4nc(-c5c(NC[C@@H](O)COc6cccc(Br)c6)ccnc5O)[nH]c4cc3C2=O)CC1 [compound 76]	0.5 to 5 µM	0.5 to 5 µM	0.5 to 5 µM	0.5 to 5 µM	0.5 to 5 µM	0.5 to 5 µM	0.5 to 5 µM
CCN(CC)C(=O)c1ccc(OC[C@H](O)CNc2ccnc(O)c2-c2nc3cc4c(cc3[nH]2)C(=O)N(C2CCN(C)CC2)C4=O)c(OC)c1 [compound 51]	> 15 µM	> 15 µM	> 15 µM	> 15 µM	> 15 µM	> 15 µM	> 15 µM
Cc1ccc(OC[C@H](O)CNc2ccnc(O)c2-c2nc3cc4c(cc3[nH]2)C(=O)N([C@@H]2CCCN(C)C2)C4=O)c(C)c1 [compound 102]	< 0.5 µM	5 to 15 µM	> 15 µM	> 15 µM	> 15 µM	5 to 15 µM	> 15 µM
CN(C)CCc1ncccc1OC[C@H](O)CNc1ccnc(O)c1-c1nc2cc3c(cc2[nH]1)C(=O)N(C1CCN(C)CC1)C3=O [compound 72]	0.5 to 5 µM	0.5 to 5 µM	0.5 to 5 µM	0.5 to 5 µM	> 15 µM	> 15 µM	> 15 µM
CN1CCC(N2C(=O)c3cc4nc(-c5c(NC[C@@H](O)COc6cccnc6)ccnc5O)[nH]c4cc3C2=O)CC1 [compound 70]	5 to 15 µM	5 to 15 µM	5 to 15 µM	0.5 to 5 µM	> 15 µM	> 15 µM	> 15 µM
CN1CCC(N2C(=O)c3cc4nc(-c5c(NC[C@@H](O)COc6cccc(Cl)c6)ccnc5O)[nH]c4cc3C2=O)CC1 [compound 75]	0.5 to 5 µM	0.5 to 5 µM	0.5 to 5 µM	0.5 to 5 µM	0.5 to 5 µM	0.5 to 5 µM	0.5 to 5 µM
